Data set [1] is described as follows: in vivo. To be noted: Sprague-Dawley, rat, po, 5 mg/kg.
Data set [2] is described as follows: in vivo. To be noted: Sprague-Dawley, rat, iv, 1 mg/kg.
Data set [3] in a line: in vivo. To be noted: Sprague-Dawley, rat, iv, 1 mg/kg. This is another data set of the same source.
Data set [4] can be described thus: in vivo. The settings on record: Sprague-Dawley, rat.

SMILES strings stand for the structures.

`C[C@@H](C(=O)N(C)[C@@H]1CCc2c(CC(=O)O)c3ccccc3n2C1)c1ccc(F)cc1`: the bioavailability in the data set “in vivo [1]” was determined as 73%. In addition, the clearance in “in vivo [2]” is 1.1 mL/min/kg. The compound further displayed a Vd in the data set “in vivo [3]” of 0.36 L/kg. Further, the half-life in the data set “in vivo [4]” is 4.7 h.

Take `CN([C@@H]1CCc2c(CC(=O)O)c3ccccc3n2C1)S(=O)(=O)c1ccc(F)cc1` [MK-7246]: the bioavailability in “in vivo [1]” stood at 138%. Also, in “in vivo [3]”, the Vd is 1.1 L/kg.

Broadly, the clearance is a measure of how efficiently the substance is removed, as volume per time. High values mean a high capacity for elimination, low ones a low capacity for elimination. For orientation: Vd means the apparent volume that relates the amount in the body to the concentration in plasma or blood. A low value points to little distribution into tissue. Usually half-life stands for how long it takes for the measured level to halve. The low end stands for rapid decline, the high end for slow decline.

Source of the values: ChEMBL document CHEMBL1777736, “New indole amide derivatives as potent CRTH2 receptor antagonists” (Bioorg Med Chem Lett, 2011).
